Data as given in patent publication US10022397B2, “Treatment of rheumatoid arthritis using noble gas mixtures” (Nobilis Therapeutics, Inc., priority 2016, dated 2018).

Tested on: patients with disease modifying antirheumatic drug (DMARD)-resistant Rheumatoid Arthritis (RA)
Description: 20 patients with disease modifying antirheumatic drug (DMARD)-resistant Rheumatoid Arthritis (RA) are chosen for a clinical trial assessing safety and efficacy of 25% Xenon administration with 75% air. A total of 10 liters of gas inhaled. Administration is performed 3 times per week.
Safety is determined by assessment of hematological biochemical, and coagulation parameters on baseline, and days 30, 60, and 90. Efficacy is assessed by CRP, ESR, anti-citrulline antibody, RF, Quality of Life Questionnaire, 28-joint disease activity score (DAS28), European League against Rheumatism (EULAR) response criteria and immunological parameters. […]
Safety will be assessed throughout the study with the use of direct evaluation and patient reporting during study visits or patient-initiated telephone contacts. The types, frequencies, severity, and duration of any reported adverse event or abnormalities in clinical laboratory values, physical examinations, vital signs, or special cardiovascular evaluations will be assessed. […]
To assess preliminary evidence of efficacy, the following assessments will be analyzed at following time points and compared to baseline values: […]
Quality of Life Assessment at 1, 2, and 3 Months Measured by: • Change in Rheumatoid Arthritis Quality of Life (RAQoL) questionnaire

[Xe] [Xenon, xenon]
clinical and immunological parameters of RA (25% Xenon with 75% air, 10 liters inhaled, 3 times per week, DAS28, EULAR, RF, ESR, CRP, anti-citrulline antibody, RAQoL at 1, 2 and 3 months vs baseline): reduction of clinical and immunological parameters of RA is noted in a statistically significant manner | treatment associated adverse events (human, in vivo): no significant treatment associated adverse events
